According to paper PMC8187479, “Sugar phosphate activation of the stress sensor eIF2B” (Nature Communications, 2021):
“And” between values parts separate entries of the source, which are not always exact repeats. Equal entries are not always repeated.

How the values were obtained:
eIF2Bα [1] = molecular target: T1, eIF2Bα (Homo sapiens, UniProt Q14232); experiment: Differential scanning fluorimetry (Protein Thermal Shift), eIF2Bα Tm; format: binding; details: for Tm of eIF2Bα: individual replicates Rep 1-4, control without metabolite about 64.1
T1 construct: made in house; host or cells: E. coli BL21(DE3)
T1 sequence (Q14232 1-305): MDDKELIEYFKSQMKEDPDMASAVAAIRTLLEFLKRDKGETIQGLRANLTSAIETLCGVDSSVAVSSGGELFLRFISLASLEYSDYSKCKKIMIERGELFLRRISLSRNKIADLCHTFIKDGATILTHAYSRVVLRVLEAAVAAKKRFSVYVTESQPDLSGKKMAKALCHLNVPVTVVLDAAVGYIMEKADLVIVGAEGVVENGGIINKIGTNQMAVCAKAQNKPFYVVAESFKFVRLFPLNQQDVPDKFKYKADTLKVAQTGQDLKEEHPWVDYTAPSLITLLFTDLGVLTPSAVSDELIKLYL
Outline: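 Human eIF2Bα at 1.5 μM was heated with Thermal Shift dye and metabolites in dose response. Tm for each condition came from Boltzmann fits of the melt curves.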

[2] = molecular target: T2, phospho-eIF2α binding to eIF2B (Homo sapiens, UniProt P49770+Q14232+Q9UI10); experiment: Phospho-eIF2α co-immunoprecipitation with FLAG-tagged eIF2B; details: lysate of thapsigargin-treated HEK293T eIF2Bβ-FLAG cells; ligand 2 h at 4 °C
T2 construct: endogenous in cells; host or cells: HEK293T with FLAG knock-in at the endogenous eIF2Bβ locus, treated with thapsigargin; lysate, anti-FLAG IP
T2 sequence (P49770 whole entry, one chain of several): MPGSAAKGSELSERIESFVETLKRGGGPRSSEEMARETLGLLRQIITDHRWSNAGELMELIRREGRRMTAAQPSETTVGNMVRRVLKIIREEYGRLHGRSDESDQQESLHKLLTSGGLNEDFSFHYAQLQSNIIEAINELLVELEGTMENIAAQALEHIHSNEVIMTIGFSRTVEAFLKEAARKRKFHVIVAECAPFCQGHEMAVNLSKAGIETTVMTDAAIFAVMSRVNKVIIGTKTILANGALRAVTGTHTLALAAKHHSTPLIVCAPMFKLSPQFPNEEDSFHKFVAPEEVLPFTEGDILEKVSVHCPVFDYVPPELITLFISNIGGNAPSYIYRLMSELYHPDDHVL
T2 sequence (Q9UI10 whole entry, one chain of several): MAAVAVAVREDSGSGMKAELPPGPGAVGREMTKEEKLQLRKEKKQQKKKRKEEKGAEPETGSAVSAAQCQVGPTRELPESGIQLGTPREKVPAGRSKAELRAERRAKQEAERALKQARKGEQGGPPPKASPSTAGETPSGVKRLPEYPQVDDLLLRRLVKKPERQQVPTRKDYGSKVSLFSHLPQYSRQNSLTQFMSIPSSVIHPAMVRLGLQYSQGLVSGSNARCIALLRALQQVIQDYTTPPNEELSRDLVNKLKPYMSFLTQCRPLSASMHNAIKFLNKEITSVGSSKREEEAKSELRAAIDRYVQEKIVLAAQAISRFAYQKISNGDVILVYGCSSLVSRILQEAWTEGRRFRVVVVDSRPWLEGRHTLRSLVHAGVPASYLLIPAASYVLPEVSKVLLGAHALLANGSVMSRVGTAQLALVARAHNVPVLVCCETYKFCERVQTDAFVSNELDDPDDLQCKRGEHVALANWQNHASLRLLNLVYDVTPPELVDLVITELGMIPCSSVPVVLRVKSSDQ
T2 sequence (Q9NR50 whole entry partner, one chain of several): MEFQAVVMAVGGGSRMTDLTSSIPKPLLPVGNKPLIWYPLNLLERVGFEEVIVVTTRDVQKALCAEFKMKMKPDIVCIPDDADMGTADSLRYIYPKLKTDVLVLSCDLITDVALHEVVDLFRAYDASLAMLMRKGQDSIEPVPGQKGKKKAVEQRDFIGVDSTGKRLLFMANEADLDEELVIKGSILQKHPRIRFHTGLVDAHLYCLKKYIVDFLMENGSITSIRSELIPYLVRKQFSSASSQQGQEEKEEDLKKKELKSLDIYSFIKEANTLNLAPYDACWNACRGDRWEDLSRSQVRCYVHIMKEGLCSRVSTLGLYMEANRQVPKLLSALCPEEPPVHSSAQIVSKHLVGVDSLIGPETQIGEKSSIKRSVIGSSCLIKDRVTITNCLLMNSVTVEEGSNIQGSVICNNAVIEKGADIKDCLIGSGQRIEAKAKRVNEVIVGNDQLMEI
T2 sequence (Q13144 whole entry partner, one chain of several): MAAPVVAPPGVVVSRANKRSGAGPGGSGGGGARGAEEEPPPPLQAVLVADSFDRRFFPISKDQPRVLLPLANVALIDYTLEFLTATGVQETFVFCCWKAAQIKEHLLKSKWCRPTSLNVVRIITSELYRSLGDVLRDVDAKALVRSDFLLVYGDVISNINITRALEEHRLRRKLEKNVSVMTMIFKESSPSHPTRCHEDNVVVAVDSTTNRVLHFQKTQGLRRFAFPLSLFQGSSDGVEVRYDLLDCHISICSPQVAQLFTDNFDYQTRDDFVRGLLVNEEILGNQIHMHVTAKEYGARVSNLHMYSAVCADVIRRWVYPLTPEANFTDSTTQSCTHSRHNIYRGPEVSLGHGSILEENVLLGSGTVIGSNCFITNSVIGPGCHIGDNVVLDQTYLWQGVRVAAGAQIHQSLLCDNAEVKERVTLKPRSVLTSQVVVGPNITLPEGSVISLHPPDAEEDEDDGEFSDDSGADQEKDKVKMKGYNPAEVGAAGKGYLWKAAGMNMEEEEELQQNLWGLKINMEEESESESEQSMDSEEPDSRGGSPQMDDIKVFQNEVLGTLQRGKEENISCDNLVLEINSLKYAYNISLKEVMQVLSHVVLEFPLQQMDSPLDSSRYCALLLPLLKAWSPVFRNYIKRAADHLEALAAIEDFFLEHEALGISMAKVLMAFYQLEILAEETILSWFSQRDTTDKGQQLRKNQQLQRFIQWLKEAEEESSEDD
Protocol: HEK293T cells endogenously expressing eIF2Bβ with a C-terminal FLAG tag were maintained in DMEM High Glucose (Corning CellGro) supplemented with 10% FBS (Gibco) and antibiotic-antimycotic (Gibco). Upon reaching 90% confluency, cells were treated with either DMSO or 100 nM thapsigargin (Sigma) for 4 h. Cells were harvested and lysed in 25 mM HEPES, 150 mM KCl, 1% NP-40, 1 mM EDTA, pH 7.4 + Complete protease inhibitor cocktail (Roche) and PhosStop (Roche) on ice for 20 min. Lysates were cleared by centrifugation at 18,000 × g, 20 min, 4 °C, and transferred to Eppendorf tubes containing anti-FLAG M2 magnetic beads (Sigma). Mixtures were incubated overnight at 4 °C. To test the effect of ligands, these were added to the mixtures and incubated for an additional 2 h at 4 °C. Beads were washed three times with lysis buffer, eluted with 1× LDS buffer (Invitrogen), and subjected to SDS-PAGE followed by Western Blot with the indicated antibodies.

eIF2Bα [3] = molecular target: T1, eIF2Bα; experiment: MIDAS (mass spectrometry integrated with equilibrium dialysis) metabolite binding screen; details: eIF2Bα2; 50 μM per metabolite pool; 40 h dialysis at 4 °C
Outline: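 Hits called at Storey q < 0.1 on z-scores of PCA-corrected log2 fold change between protein and metabolite chambers, quantified by FIA-MS in triplicate.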

eIF2Bα^V183F = eIF2Bα^V183F (Homo sapiens, UniProt Q14232, V183F); experiment: Size-exclusion chromatography of recombinant eIF2Bα V183F, alone or with eIF2B(βδγε); format: biochemical; parameters: made in house; host or cells: E. coli BL21(DE3); details: SEC, recombinant eIF2B(βδγε) + eIF2Bα V183F; 200 μM F6P
Sequence of eIF2Bα^V183F (Q14232 whole entry V183F): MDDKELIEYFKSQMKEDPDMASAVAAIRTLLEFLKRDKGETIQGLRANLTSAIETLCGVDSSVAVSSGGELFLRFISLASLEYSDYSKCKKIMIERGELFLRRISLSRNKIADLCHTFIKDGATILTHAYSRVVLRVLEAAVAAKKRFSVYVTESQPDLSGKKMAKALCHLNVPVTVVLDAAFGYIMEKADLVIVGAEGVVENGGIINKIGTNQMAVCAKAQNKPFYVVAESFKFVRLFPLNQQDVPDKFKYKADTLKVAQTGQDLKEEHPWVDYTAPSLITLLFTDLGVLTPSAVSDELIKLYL
Sequence of eIF2Bα^V183F (P49770 whole entry partner): as the sequence (P49770 whole entry, one chain of several) above
Sequence of eIF2Bα^V183F (Q9UI10 whole entry partner): as the sequence (Q9UI10 whole entry, one chain of several) above
Sequence of eIF2Bα^V183F (Q9NR50 whole entry partner): as the sequence (Q9NR50 whole entry partner, one chain of several) above
Sequence of eIF2Bα^V183F (Q13144 whole entry partner): as the sequence (Q13144 whole entry partner, one chain of several) above
Protocol: Purified proteins were thawed and centrifuged at 20,000 × g, 10 min, 4 °C to remove any potential precipitate. Concentrations of eIF2B(βδγε) and eIF2Bα were normalized to 2 μM and 2.4 μM, respectively. 0.2 mL of each mixture was injected onto a Superose 6 Increase 10/300 column connected to an AKTA Pure 25 FPLC system (GE Healthcare). The system was run at 0.5 mL/min for 1 h using 25 mM HEPES, 200 mM KCl, 2 mM MgCl2, 1 mM DTT, pH 7.5 as the mobile phase. For conditions with ISRIB, the protein samples and mobile phase were supplemented with 500 nM ISRIB. For conditions with F6P, the protein samples and mobile phase were supplemented with 200 μM F6P. UV280 measurements were obtained directly by the instrument.

**Q.** How did the “Tm of eIF2Bα” value (eIF2Bα [1]; 0.33 mM metabolite) turn out when `O=C(CO)[C@@H](O)[C@H](O)[C@H](O)COP(=O)(O)O` [F6P, fructose-6-phosphate] was run?
**A.** 64.8334 °C and 64.3598 °C and 65.3978 °C and 64.9639 °C

**Q.** And the “Tm of eIF2Bα” value (eIF2Bα [1]; 1 mM metabolite)?
**A.** 66.8037 °C and 65.9412 °C and 67.2839 °C and 67.2375 °C

**Q.** And the “Tm of eIF2Bα” value (eIF2Bα [1]; 3.3 mM metabolite)?
**A.** 67.7489 °C and 67.4475 °C and 67.8791 °C and 67.7249 °C

**Q.** And the “Tm of eIF2Bα” value (eIF2Bα [1]; 10 mM metabolite)?
**A.** 69.8589 °C and 69.0448 °C and 70.0639 °C and 69.9908 °C

**Q.** And the “Tm shift of eIF2Bα2” value (eIF2Bα [1]; largest shift seen in dose-response)?
**A.** 6 °C

**Q.** What about the “co-immunoprecipitation of phospho-eIF2α with FLAG-tagged eIF2B” value [2] of the same molecule?
**A.** did not decrease the interaction

**Q.** What about the “MIDAS result (enrichment in the protein chamber / hit status)” value (eIF2Bα [3]) of the same molecule?
**A.** not a MIDAS hit

**Q.** And the “eIF2Bα V183F monomer peak” value (eIF2Bα^V183F)?
**A.** significant reduction of the eIF2Bα^V183F monomer peak
